From patent publication US8450300B2 (priority 2009, dated 2013)
Entries after “also recorded” stand apart in the source; their conditions may differ. Where two headings read alike, the source gives them in different places.

Assays:
[1] = Multi-dose pharmacokinetics 500 mg TID, 13 doses; format: in vivo, human; settings: for AUC: Day 5 (13 doses)
Description: The pharmacokinetics of multiple oral doses of CEM-102 (sodium fusidate) 500 mg tablets in healthy subjects was evaluated. Subjects were randomized in a 3:1 ratio and received either CEM-102 500 mg (2×250 mg; n=18) or placebo tablets TID (n=6) for 4.5 days for a total of 13 doses.
Blood samples for assay of plasma concentrations of CEM-102 and placebo were collected pre-dose on Day 1 and at 24, 48, 72, and 96 hours. Samples were also collected at the following times after the morning dose on Day 5: 0.5, 1, 1.5, 2, 2.5, 3, 3.5, 4, 6, 8, 12, 16, 24, 36, and 48 hours.
Plasma concentrations of CEM-102 were assayed at MicroConstants, Inc. in San Diego, Calif., USA using a validated LC/MS/MS method with a lower limit of quantitation (LLOQ) of 20.0 ng/mL.

[2] = tested on: methicillin-resistant S. aureus (MRSA) strain USA 300; assay: Hollow fiber pharmacodynamic model, resistance potential; format: cell-based
Description: A hollow fiber model was used to evaluate CEM-102 resistance potential in methicillin-resistant S. aureus (MRSA) strain USA 300 (Network of Antimicrobial Resistance in Staphylococcus aureus (NARSA), Chantilly, Va.). USA 300 is a highly virulent strain of MRSA and is the most common community-associated MRSA isolate in the USA. MIC values were determined in accordance with Clinical and Laboratory Standards Institute (CLSI).
The hollow fiber model comprised a two-compartment hollow fiber model (Louie et al. Antimicrob Agents Chemother 52:2486-2496(2008)) consisting of a volume of 15 mL in the central compartment, with multiple ports for the removal of broth, delivery of antibiotics, and collection of bacterial and antimicrobial samples. […] All experiments were performed in duplicate.
Hollow fibers contain 15 ml of media was prepared and inoculated with 10^6 colony forming units (CFU)/mL USA 300 bacteria. One of three different dosing regimens of […] was then applied to the fibers: (1) […] q12h; (2) 1200 mg/ml×2, followed by […], q12h; (3) 1500 mg/ml×2, followed by […], q12h.

[3] = Dose escalation study, single/multiple dose and loading dose regimens: safety and tolerability; format: in vivo
Description: (§1) The pharmacokinetics (PK), safety, and tolerability of single and multiple doses of CEM-102 (sodium fusidate) were evaluated in a single-center, Phase 1, double-blind, randomized, placebo-controlled, dose-escalating study in 32 healthy adult subjects enrolled in 4 dosage groups (550, 1100, 1650, and 2200 mg). In each cohort, six subjects were to receive CEM-102 and two were to receive placebo in a single dose (Period 1) and then multiple doses BID for a total of 11 doses over 5.5 days (Period 2). The two dosing periods were separated by a seven-day washout period between the single dose in Period 1 and the first dose in Period 2.
(§2) Dosing proceeded as planned for Cohorts 1 to 3; however, Cohort 4 received only the single dose of 2200 mg (Period 1), because dose-limiting gastrointestinal intolerance was observed after multiple doses of 1650 mg BID in Cohort 3. Period 2 for Cohort 4 evaluated an initial loading dose regimen, and a second loading dose regimen was evaluated in an additional cohort (Cohort 5) per a protocol amendment.
(§3) The protocol was amended for assessment of the safety, tolerability, and PK of front-loaded dose regimens comprised of a higher dose of CEM-102 on Day 1 followed by lower doses for the subsequent 6.5 days. All loading dose regimens employed multiple doses lower than the maximum tolerated dose (MTD) established in the first part of the study (1650 mg administered as multiple doses).
(§4) The loading dose regimens assessed were 1100 mg BID on Day 1 and 550 mg BID on the following 6.5 days in Period 2 of Cohort 4 and 1650 mg BID on Day 1 and 825 mg BID on the following 6.5 days in Cohort 5.

[4] = Dose escalation study, single/multiple dose and loading dose regimens: pharmacokinetics; format: in vivo, human; settings: for concentration at 7 days: after 7 days of dosing; for concentration at 7 days / concentration at 24 h: read-out: mean trough plasma concentration
Description: as §1, §2, §3, §4

[5] = after the single dose of 2200 mg
[6] = human, in vivo, 550 mg, Period 1 Day 1, single dose 550 mg
[7] = human, in vivo, 1100 mg BID loading dose then 550 mg BID
[8] = human, in vivo, 1100 mg, Period 1 Day 1, single dose 1100 mg
[9] = human, in vivo, 1650 mg BID loading dose then 825 mg BID
[10] = human, in vivo, 1650 mg, Period 1 Day 1, single dose 1650 mg
[11] = human, in vivo, 2200 mg, Period 1 Day 1, single dose 2200 mg

CC(=O)O[C@H]1C[C@@]2(C)[C@@H](C[C@@H](O)[C@H]3[C@@]4(C)CC[C@@H](O)[C@@H](C)[C@@H]4CC[C@@]32C)/C1=C(\CCC=C(C)C)C(=O)O [CEM-102, Sodium fusidate]
trough level ([1]; 500 mg TID, prior to dosing on Day 5): 105 µg/mL
Cmaxss, geometric mean ([1]; human, in vivo, 500 mg): 145.68 µg/mL
AUC ([1]; human, in vivo, 500 mg, 500 mg TID, read-out: AUC0-tss, geometric mean): 3560 µg·h/mL
AUC ([1]; human, in vivo, 500 mg, 500 mg TID, read-out: AUC0-τss, geometric mean): 1030 µg·h/mL
reduction of bacterial counts ([2]; 1200 mg×2 then 600 mg q12h): 2 logs
time until which resistance was suppressed ([2]; 1500 mg×2 then 600 mg q12h): > 72 h
maximum tolerated dose (MTD) ([3]; administered as multiple doses): 1650 mg
subjects reporting nausea ([3]; after multiple doses, all cohorts): 9 subjects
changes in physical examinations, vital signs, ECGs, or laboratory parameters ([3]; after single doses): no clinically significant changes
subjects with nausea alone [3, 5]: 2
subjects with nausea and vomiting [3, 5]: 1 subject
safety and tolerability ([3]; doses up to 1650 mg BID for 5.5 days): safe and generally well tolerated
Adverse Event (treatment-emergent, per subject and day) ([3]; loading dose regimen 1100/550 mg): Urinary; also recorded: Nausea; also recorded: Constipation
tolerability ([3]; loading dose regimens 1100/550 mg and 1650/825 mg, total 7.5 days): very well tolerated
Adverse Event (treatment-emergent, per subject and day) ([3]; multiple dose 550 mg BID cohort, blinded listing): Nausea; also recorded: Epigastric pain; also recorded: Dizziness; also recorded: Elevated BP; also recorded: Headache; also recorded: Tachycardia; also recorded: Pharyngitis; also recorded: Hoarseness; also recorded: Sore throat
Adverse Event (treatment-emergent, per subject and day) ([3]; multiple dose 1100 mg BID cohort, blinded listing): Heartburn; also recorded: Constipation; also recorded: Skin Irritation; also recorded: Nausea; also recorded: Dizziness; also recorded: Viral URI
subjects reporting nausea ([3]; multiple doses 550 mg BID): 2 subjects
subjects reporting nausea ([3]; multiple doses 1100 mg BID): 2 subjects
subjects reporting nausea ([3]; multiple doses 1650 mg BID): 5 subjects
subjects with vomiting ([3]; multiple doses 1650 mg BID): 4 subjects
Adverse Event (treatment-emergent, per subject and day) ([3]; single dose 1650 mg): None
Adverse Event (treatment-emergent, per subject and day) ([3]; single dose 2200 mg): Nausea; also recorded: Vomiting; also recorded: Abdomen distention
gastrointestinal AEs ([3]; single dose, 550, 1100 or 1650 mg cohorts): no gastrointestinal AEs
tolerability ([3]; single doses up to 2200 mg): safe and well tolerated
changes in physical examinations, vital signs, ECGs, or laboratory parameters ([3]; single doses up to 2200 mg, multiple doses up to 1650 mg for 5.5 days, or loading dose regimens for 7.5 days): no clinically significant changes
overall safety and tolerability ([3]; whole study): safe and generally well tolerated
serious or life-threatening adverse events ([3]; whole study): No serious or life-threatening adverse events
AUC(0-12) accumulation ratio ([4]; Mean AUC(0-12) Day 6/Mean AUC(0-inf) Day 1, 550 mg): 2.61
AUC(0-12) accumulation ratio ([4]; Mean AUC(0-12) Day 6/Mean AUC(0-inf) Day 1, 1100 mg): 2.30
AUC(0-12) accumulation ratio ([4]; Mean AUC(0-12) Day 6/Mean AUC(0-inf) Day 1, 1650 mg): 1.83
Cmax accumulation ratio ([4]; Mean Cmax Day 6/Mean Cmax Day 1, 550 mg): 3.89
Cmax accumulation ratio ([4]; Mean Cmax Day 6/Mean Cmax Day 1, 1100 mg): 3.89
Cmax accumulation ratio ([4]; Mean Cmax Day 6/Mean Cmax Day 1, 1650 mg): 3.18
Kel, apparent first-order terminal elimination rate constant, mean ([4]; Period 1 Day 1, single dose 550 mg): 0.0564 h⁻¹
Kel, apparent first-order terminal elimination rate constant, mean ([4]; Period 1 Day 1, single dose 1100 mg): 0.0617 h⁻¹
Kel, apparent first-order terminal elimination rate constant, mean ([4]; Period 1 Day 1, single dose 1650 mg): 0.0498 h⁻¹
Kel, apparent first-order terminal elimination rate constant, mean ([4]; Period 1 Day 1, single dose 2200 mg): 0.0500 h⁻¹
Kel, mean ([4]; Period 2 Day 6, 550 mg BID): 0.0554 h⁻¹
Kel, mean ([4]; Period 2 Day 6, 1100 mg BID): 0.0404 h⁻¹
Kel, mean ([4]; Period 2 Day 6, 1650 mg BID): 0.0199 h⁻¹
Tmax ([4]; human, in vivo, 550 mg): 3 h
Cmax [4, 6]: 33.4 µg/mL
Vd/F [4, 6]: 28.4 L
AUC(0-t) ([4]; human, in vivo, 550 mg, Period 1 Day 1, single dose 550 mg, read-out: AUC(0-24), mean): 242 µg·h/mL
half-life ([4]; human, in vivo, 550 mg, Period 1 Day 1, single dose 550 mg, read-out: T1/2, harmonic mean (converted)): 12.3 h
Tmax ([4]; human, in vivo, 550 mg, Period 1 Day 1, single dose 550 mg, read-out: Tmax, median): 2 h
Vd/F ([4]; human, in vivo, 550 mg, Period 2 Day 6, 550 mg BID): 9.88 L
Cmax ([4]; human, in vivo, 550 mg, Period 2 Day 6, 550 mg BID, 11 doses): 130 µg/mL
AUC(0-t) ([4]; human, in vivo, 550 mg, Period 2 Day 6, 550 mg BID, read-out: AUC(0-12), mean): 1150 µg·h/mL
half-life ([4]; human, in vivo, 550 mg, Period 2 Day 6, 550 mg BID, read-out: T1/2, harmonic mean (converted)): 12.5 h
concentration at 7 days [4, 7]: ~105 µg/mL
concentration at 24 h [4, 7]: ~74 µg/mL
Cmax [4, 8]: 72.2 µg/mL
Vd/F [4, 8]: 16.9 L
AUC(0-t) ([4]; human, in vivo, 1100 mg, Period 1 Day 1, single dose 1100 mg, read-out: AUC(0-24), mean): 844 µg·h/mL
half-life ([4]; human, in vivo, 1100 mg, Period 1 Day 1, single dose 1100 mg, read-out: T1/2, harmonic mean (converted)): 11.2 h
Vd/F ([4]; human, in vivo, 1100 mg, Period 2 Day 6, 1100 mg BID): 12.7 L
Cmax ([4]; human, in vivo, 1100 mg, Period 2 Day 6, 1100 mg BID, 11 doses): 281 µg/mL
AUC(0-t) ([4]; human, in vivo, 1100 mg, Period 2 Day 6, 1100 mg BID, read-out: AUC(0-12), mean): 2530 µg·h/mL
half-life ([4]; human, in vivo, 1100 mg, Period 2 Day 6, 1100 mg BID, read-out: T1/2, harmonic mean (converted)): 17.1 h
Tmax ([4]; human, in vivo, 1650 mg): 4 h
concentration at 7 days [4, 9]: ~200 µg/mL
concentration at 24 h [4, 9]: ~150 µg/mL
Cmax [4, 10]: 102 µg/mL
Vd/F [4, 10]: 21.1 L
AUC(0-t) ([4]; human, in vivo, 1650 mg, Period 1 Day 1, single dose 1650 mg, read-out: AUC(0-24), mean): 1260 µg·h/mL
Vd/F ([4]; human, in vivo, 1650 mg, Period 2 Day 6, 1650 mg BID): 34.8 L
Cmax ([4]; human, in vivo, 1650 mg, Period 2 Day 6, 1650 mg BID, 11 doses): 324 µg/mL
AUC(0-t) ([4]; human, in vivo, 1650 mg, Period 2 Day 6, 1650 mg BID, read-out: AUC(0-12), mean): 3290 µg·h/mL
half-life ([4]; human, in vivo, 1650 mg, Period 2 Day 6, 1650 mg BID, read-out: T1/2, harmonic mean (converted)): 31.6 h
CL/F, mean ([4]; human, in vivo, 2200 mg): 0.924 L/h
half-life ([4]; human, in vivo, 2200 mg): 13.9 h
Cmax [4, 11]: 128 µg/mL
Vd/F [4, 11]: 19.2 L
AUC(0-t) ([4]; human, in vivo, 2200 mg, Period 1 Day 1, single dose 2200 mg, read-out: AUC(0-24), mean): 1690 µg·h/mL
Tmax ([4]; human, in vivo, 2200 mg, Period 1 Day 1, single dose 2200 mg, read-out: Tmax, median): 6 h
AUC(0-inf) ([4]; human, in vivo, Period 1 Day 1, single dose 550 mg): 441 µg·h/mL
AUC(0-inf) ([4]; human, in vivo, Period 1 Day 1, single dose 1100 mg): 1100 µg·h/mL
AUC(0-inf) ([4]; human, in vivo, Period 1 Day 1, single dose 1650 mg): 1800 µg·h/mL
AUC(0-inf) ([4]; human, in vivo, Period 1 Day 1, single dose 2200 mg): 2650 µg·h/mL
